Experimental data: patent publication US5821061A, “Method and reagent for detecting a ligand in a sample” (Toyo Boseki Kabushiki Kaisha, priority 1995, dated 1998)

Columns and labels:
[1] = tested on: alkaline phosphatase of Bacillus badius TE3597; experiment: Substrate specificity of the alkaline phosphatase of Bacillus badius TE3597; assay type: biochemical; details: enzyme of Bacillus badius TE3597; for Relative Activity: substrate specificity, p-nitrophenyl phosphate = 100
[2] = tested on: alkaline phosphatase of Bacillus badius TE3592; experiment: Substrate specificity of the alkaline phosphatase of Bacillus badius TE3592; assay type: biochemical; details: enzyme of Bacillus badius TE3592; for Relative Activity: substrate specificity, p-nitrophenyl phosphate = 100
[3] = tested on: alkaline phosphatase of Bacillus badius TE3593; experiment: Substrate specificity of the alkaline phosphatase of Bacillus badius TE3593; assay type: biochemical; details: enzyme of Bacillus badius TE3593; for Relative Activity: substrate specificity, p-nitrophenyl phosphate = 100
[4] = literature; cited from earlier work
[5] = literature; temperature not given; cited from earlier work

| Molecule | Substrate specificity (acts on) [1] | Relative Activity [1] | Substrate specificity (acts on) [2] | Relative Activity [2] | Substrate specificity (acts on) [3] | Relative Activity [3] | Stability (in words) [4] | Specific activity [5] [U/mg] |
| --- | --- | --- | --- | --- | --- | --- | --- | --- |
| O=P(O)(O)OCC(O)CO (racemic) [DL-α-Glycerophosphate] | acts on | 67.0 | acts on | 37.9 | acts on | 71.4 |  |  |
| O=P(O)(O)OC1O[C@H](CO)[C@@H](O)[C@H](O)[C@H]1O (stereo partly drawn) [Glucose-1-phosphate] | acts on | 25.0 |  | 0 |  | 1.44 |  |  |
| O=P(O)(O)OC[C@H]1OC(O)[C@H](O)[C@@H](O)[C@@H]1O (stereo partly drawn) [Glucose-6-phosphate] | acts on | 34.5 | acts on | 14.8 | acts on | 44.3 |  |  |
| NC(=O)c1ccc[n+]([C@@H]2O[C@H](COP(=O)([O-])OP(=O)(O)OC[C@H]3O[C@@H](n4cnc5c(N)ncnc54)[C@H](OP(=O)(O)O)[C@@H]3O)[C@@H](O)[C@H]2O)c1 [NADP] | acts on | 15.4 | acts on | 15.4 | acts on | 90.5 |  |  |
| NCCOP(=O)(O)O [Phosphoethanolamine] | acts on | 67.0 | acts on | 44.4 | acts on | 73.8 |  |  |
| O=P(O)(O)OC(CO)CO [β-Glycerophosphate] | acts on | 67.5 | acts on | 49.7 | acts on | 78.1 |  |  |
| alkaline phosphatase derived from Escherichia coli: alkaline phosphatase derived from Escherichia coli, used for dephosphorylation in molecular biology |  |  |  |  |  |  | good stability | 60 |
